This data set can be described thus: Human HepG2 cell viability assay in 384 well format. The class given is toxicity, cell-based. Set-up: dose 125 nL, time 70.5 hour; cytotoxicity at 70.5 h: concentration not given beside the values. The note with it: HepG2 cells, read-out: Inhibition.
Regarding `Cc1cc(C(=O)O)c2c(Br)cccc2n1`, the cytotoxicity at 70.5 h is -13.5%.
The same measure for `Cc1ccc(C(=O)N(CCC#N)Cc2ccccn2)cc1C`: 8.47%; for `CNc1nc(CNC(=O)Nc2cccc(F)c2C)cs1`: -7.06%.
The result for `CCOc1cc(Cl)ccc1CNC(=O)N(C)CC(C)(C)O` reads -78.1%.
Consider `CCn1cc(CN(C)C(=O)C(c2ccccc2C)N(C)C)cn1` (centres undefined), for which the cytotoxicity at 70.5 h is -1.5%.
Regarding `c1cncc(-c2ccnn2CN2CCC3(CC2)OCCO3)c1`, the cytotoxicity at 70.5 h was -5.34%.
`CN(C)C(=O)CN1CCCC1c1cccc(Cc2ccccc2F)n1` (centres undefined): the cytotoxicity at 70.5 h came to 0.856%.
Consider `COc1ccc(-c2nnsc2C(=O)N2CCC(C(N)=O)CC2)cc1`, for which the cytotoxicity at 70.5 h is -13.8%.
The result for `Cc1ccccc1S(=O)(=O)CCOC(C)C` reads 9.57%; that for `CCCc1n[nH]cc1C(=O)N1CCC(c2nccn2CCOC)CC1`, 19%.
Turning to `CCC1(O)CCCN(c2nc(C(C)(C)C)nc3c2cnn3C)C1` (centres undefined), the cytotoxicity at 70.5 h was -9.12%.
Consider `CC(C)Nc1ncnc2c1CCN(C(=O)c1ccc[nH]1)CC2`, for which the cytotoxicity at 70.5 h is -9.63%.
The same measure for `Cc1cc(NC(=O)NCc2ccccc2OC(F)F)n(C)n1`: -5.54%.
As to `Cc1cc(NC(=O)CN2CCc3cnc(C)nc3C2)on1`, the cytotoxicity at 70.5 h was found to be 35.8%.
Take `O=C1CSC(c2ccc(F)c(Cl)c2)c2c(n(C3CCOCC3)[nH]c2=O)N1` (centres undefined): the cytotoxicity at 70.5 h was 10.3%.
The same measure for `CC(C)c1nccn1C1CCCN(C(=O)c2cnc[nH]2)C1` (centres undefined): 3.72%; for `c1cnc(N2CCC(c3csc(Nc4cnccn4)n3)CC2)nc1`: 12.4%.
Consider `O=C(NCCn1cccn1)Nc1cc(C(=O)N2CCOCC2)ccc1Cl`, for which the cytotoxicity at 70.5 h is -7.57%.
With `COc1ccc(CNC(=O)Nc2ccc(CN3CCOC3=O)cc2)cc1`, the cytotoxicity at 70.5 h is -0.36%.
Regarding `CCOCC(=O)NCCC(O)c1ccoc1` (centres undefined), the cytotoxicity at 70.5 h is -11.9%.
The same measure for `Cc1cc(C)c(CNC(=O)N2CCCC2c2ccccn2)c(=O)[nH]1` (centres undefined): -6.29%; for `Cc1cccc(CN2CC3(CCN(S(=O)(=O)C4CC4)CC3)OCC2=O)n1`: -0.285%.
The same measure for `O=C1CN(C(=O)c2cc(Cl)ccc2F)c2ccncc2N1`: -8.1%.
Turning to `COc1cccc2c3c(c(=O)[nH]c12)CC(C)(C)O3`, the cytotoxicity at 70.5 h was -6.98%.
`O=C([C@H]1CN(Cc2ccoc2)C[C@H]2OCC[C@@H]12)N1CCCCO1`: the cytotoxicity at 70.5 h is -4.73%.
Turning to `CCc1c(C)sc2ncnc(N3CC[C@@H](N4CCOCC4)[C@H](O)C3)c12`, the cytotoxicity at 70.5 h is -4.12%.
Consider `CCNC(=O)N1CCCC(C(=O)c2cccc(OC(C)C)c2)C1` (centres undefined), for which the cytotoxicity at 70.5 h is -6.88%.
The result for `O=C(Nc1ccccc1OC1CCOC1)c1cc[nH]n1` (centres undefined) reads 16.6%.
Regarding `CCN1C[C@@H]2CN(C(=O)C3CC=CC3)C[C@@H]2C1=O`, the cytotoxicity at 70.5 h is 28%.
The result for `O=C(c1cccc(-n2cnnn2)c1)N1CCC2(CC1)OCCO2` reads -7.02%; that for `Cc1cc(O)nc(C2CN(CCC(F)(F)F)CCO2)n1` (centres undefined), -7.38%.
In the case of `CC(C)=CCN1C[C@H]2CC[C@@H]1CN(C(=O)c1ccc(S(N)(=O)=O)cc1)C2`, the cytotoxicity at 70.5 h is 1.36%.
As to `CC(C)c1nn(C)cc1CNCc1cccnc1N(C)C`, the cytotoxicity at 70.5 h was found to be 2.18%.
The result for `Cc1ccc(N2C[C@H]3OCC[C@H]3[C@H](C(=O)NC3CCC3)C2)nn1` reads -13%; that for `Cc1cc(C(=O)NC(C)C(=O)Nc2cc(F)ccc2C)nc(C)n1` (centres undefined), 5.43%; that for `COCCN(C)C(C(=O)O)c1ccc(C)c(C)c1` (centres undefined), 0.276%.
`CN(C)Cc1cnc(C2CN(C(=O)c3ccccc3Cl)CCO2)[nH]1` (centres undefined): the cytotoxicity at 70.5 h was -1.46%.
The same measure for `O=C1CC[C@H]2[C@H](CCN2C(=O)C2CCCO2)N1Cc1cccnc1` (some centres undefined): -6.99%; for `CN(CCc1cnn(C)c1)C(=O)CN1C(=O)OC[C@@H]1c1ccccc1`: -5.22%; for `O=C1COc2ccc(S(=O)(=O)N3CCOCC3)c3c2N1CCC3`: 35.1%.
As to `CO[C@H]1CCN(Cc2ccoc2)C[C@@H]1Cc1ccccc1`, the cytotoxicity at 70.5 h came out at 20.5%.
For the compound `Cc1c(C(=O)NCC(C)C)nnn1-c1cccc2c1CCN(C)C2`, the cytotoxicity at 70.5 h turned out to be 1.85%.
For the compound `O=C(O)c1ccc2c(CN3CCCC3)c[nH]c2c1`, the cytotoxicity at 70.5 h was 5.69%.
On to `CCc1cc(N[C@H]2CC[C@H](O)CC2)n2nc(C)c(C)c2n1`, for which the cytotoxicity at 70.5 h is -0.423%.
The same measure for `COc1cccc2c1OCC(NC(=O)NCc1cccs1)C2` (centres undefined): -0.177%; for `CNc1ccnc(N2C[C@@H]3CC[C@H](C2)N(CCOC)C3=O)n1`: -8%.
The same measure for `O=C(CCc1nc2cc(Br)cnc2[nH]1)NCc1cccnc1`: -17.1%; for `Cc1ccc(OCC(O)CN2CCc3c(ncn3C3CC3)C2)cc1` (centres undefined): -4.79%; for `O=C(CCN1C(=O)CCC1=O)NCC1(c2c(F)cccc2F)CCCC1`: -11.2%.
Turning to `CCCc1nnc(NC(=O)N2CCCC(NC(C)=O)C2)s1` (centres undefined), the cytotoxicity at 70.5 h is -4.43%.
As for `Cc1csc(CNC(=O)NCC2(c3ccc4c(c3)OCO4)CC2)n1`, the cytotoxicity at 70.5 h is -2.06%.
In the case of `Cc1cc2nc(C(C)C)cc(NCc3ccncc3)n2n1`, the cytotoxicity at 70.5 h is -7.5%.
The result for `COc1ccnc(N2CCN(Cc3ncc(-c4ccccc4)o3)CC2)n1` reads 4.14%; that for `CC1(C)COCCN1C(=O)c1ccc(Cn2cncn2)cc1`, -9.35%.
As to `Cc1ccc(CN(Cc2ccccn2)C(=O)C2CCCCCN2C)s1` (centres undefined), the cytotoxicity at 70.5 h is 27.3%.
The result for `Cc1cc(C)n(C2CN(CC(=O)N3CCOCC3)C2)n1` reads 4.72%; that for `COc1ccc(C)cc1-n1c(COC(C)C)n[nH]c1=O`, -18.9%; that for `COc1ccc(CN2CCn3cc(CNC(=O)C4CCC4)nc3C2)cc1`, 7.38%.
As for `O=C(N1CCCCC1)N1CCN(c2ccc(Cl)nn2)C(=O)C1`, the cytotoxicity at 70.5 h is -5.68%.
On to `Cc1ccc(-c2n[nH]cc2CNCCn2cccn2)o1`, for which the cytotoxicity at 70.5 h was 2.17%.
Consider `CC1COc2ccccc2N1C(=O)c1cscn1` (centres undefined), for which the cytotoxicity at 70.5 h was -9.82%.
With `O=C(c1scc2c1OCCO2)N1CCC(Cc2cccc(CO)c2)C1` (centres undefined), the cytotoxicity at 70.5 h is -3.37%.
As for `Cc1cc(CCC(N)=O)cc(C2CCCN2Cc2ccccn2)n1` (centres undefined), the cytotoxicity at 70.5 h is -9.69%.
Turning to `O=C(NCCc1csc(-c2cccnc2)n1)c1cnn2c1CCCC2`, the cytotoxicity at 70.5 h was -7.57%.
The same measure for `COCCN1CCC(NC(=O)C2(c3cc(C)cc(C)c3)CC2)CC1`: -11.3%.
The result for `O=C(CCN1CCCC1=O)Nc1cnn(-c2ccccc2Cl)c1` reads -8.1%; that for `CC(=O)N1CCC2(CC1)C(=O)N(CC1CCN(C)CC1)c1ccccc12`, -8.7%; that for `CNc1cc(N2CCCC2CNCc2csc(C)n2)ncn1` (centres undefined), 6.11%.
The result for `Cc1ncc(CN(C)C2CCCN(Cc3noc(C4CC4)n3)C2)s1` (centres undefined) reads -12.3%; that for `NC(=O)COc1ccc(CNCc2c(F)cccc2F)cc1`, -3.08%.
As for `CN(Cc1nnc(C2CC2)n1C)C1CCN(CCS(C)(=O)=O)C1` (centres undefined), the cytotoxicity at 70.5 h is -6.94%.
The same measure for `O=C(c1ccc2nncn2c1)N1CCCC1c1noc(C2CC2)n1` (centres undefined): -7.81%.
With `O=C(COc1cccc2c1CCC2=O)NCCc1cccs1`, the cytotoxicity at 70.5 h was found to be 12.1%.
As for `Cn1ccnc1C(=O)NC[C@H]1OC[C@@H]2CCN(S(C)(=O)=O)C[C@@H]21`, the cytotoxicity at 70.5 h was 21.4%.
With `c1cncc(COCC2CC[C@H]3[C@H]2OCCN3Cc2ccoc2)c1` (some centres undefined), the cytotoxicity at 70.5 h worked out at 11.3%.
In the case of `CCCc1noc(CN2CCN(c3nccs3)CC2)n1`, the cytotoxicity at 70.5 h was -6.87%.
Regarding `Cc1cn2c(n1)CCC(NC(=O)CCC(F)(F)F)C2` (centres undefined), the cytotoxicity at 70.5 h is -3.72%.
The same measure for `O=C(c1cscn1)N1C[C@H]2CCCC(OCc3cccnc3)[C@H]2C1` (some centres undefined): -11.5%; for `CCCS(=O)(=O)NC(=O)c1cc(C)n(-c2ccccc2)n1`: 7.41%; for `CC(C)(C)c1cc(CN2C[C@@H]3CC[C@H](C2)N(Cc2ccccn2)C3)n[nH]1`: -9.78%.
The result for `CCOc1cc(C(=O)N2CCCC(n3cncn3)C2)ccc1C` (centres undefined) reads -20.7%; that for `Cc1cccc(N2CCN(CCC(=O)NCc3cnc(C)cn3)CC2)c1`, 23.9%.
As to `CC(C)N(CC(=O)Nc1ccc(Br)cc1Cl)Cc1cccnc1`, the cytotoxicity at 70.5 h came to 38.4%.
`CCCNC(=O)c1cccc(CNCc2csc(C(C)(C)C)n2)c1`: the cytotoxicity at 70.5 h was -44.8%.
For `Cc1cc(C)n(CC2CN(CC(=O)N3CCC3)CCO2)n1` (centres undefined), the cytotoxicity at 70.5 h is -13.4%.
The same measure for `COCCCS(=O)(=O)N1CCN(c2cccc(O)c2)CC1`: -6.99%; for `CC(C)(C)n1ncc(NCCc2ccccc2C(F)(F)F)c(Cl)c1=O`: 33%.
As to `Cn1ccnc1CNC(=O)c1ccnc(C2CCNCC2)c1`, the cytotoxicity at 70.5 h was -6.57%.
The same measure for `Cc1cc(C)nc(N2CCN(C(=O)c3cc(Cl)c[nH]3)CC2)n1`: -9.1%.
As for `CC(C)S(=O)(=O)C(C)C(=O)NCc1ccccc1COc1ccccc1` (centres undefined), the cytotoxicity at 70.5 h was -11%.
Turning to `CCO[C@@H]1CCN(C(=O)N(C)C)[C@@H]1Cc1cnn(C)c1`, the cytotoxicity at 70.5 h was -10.7%.
In the case of `COCc1ccc(C(=O)N2CCOCC2c2ccc(C)o2)cc1` (centres undefined), the cytotoxicity at 70.5 h is -0.476%.
Turning to `COC(=O)C(CCSC)NC(=O)Cc1c(C)nn(-c2ccccc2)c1C` (centres undefined), the cytotoxicity at 70.5 h was found to be 1.93%.
The result for `CC(CC(=O)N1CCCN(Cc2nccn2C)CC1)n1cccc1` (centres undefined) reads -12.4%; that for `CC(=O)N1CCN(C2CCc3ccccc32)CC1` (centres undefined), -2.55%; that for `CN1CCN(C(=O)c2cc(-c3cccs3)cs2)CC1`, -10.5%.
`Cc1ncsc1-c1cc(C(=O)NCCO)ccn1`: the cytotoxicity at 70.5 h was 21.2%.
The result for `Cn1nc(CN2CCOCC2)c2c1CN(C(=O)c1ccc[nH]1)C2` reads 0.563%; that for `c1cncc(OC[C@]23COC[C@H]2CN(Cc2nccs2)C3)c1`, -120%.

The values are drawn from ChEMBL document CHEMBL3507680, “University of Dundee, Gates Library screen for HepG2 cell viability”.
